Holding throughout (assay): relative viability (nuclei count vs DMSO), 5 days (fraction); higher = more cells survive
Compound in assay [1]: Cn1cnc2c(F)c(Nc3ccc(Br)cc3Cl)c(C(=O)NOCCO)cc21 [Selumetinib] + CCNC(=O)c1noc(-c2cc(C(C)C)c(O)cc2O)c1-c1ccc(CN2CCOCC2)cc1 [Luminespib] (partner 0.01 µM)
In short, it runs like this:
(§1)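 Lung cancer cell lines in 1536-well plates got either a single drug or a fixed anchor-drug dose together with five library-drug doses (not always all listed) in √10 steps, by pin tool, on the day after seeding. Nuclei were counted after 5 days, and relative viability is the treated-to-vehicle ratio of nuclei counts. Values are medians of duplicate plates.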

Compound in assay [2]: Cn1cnc2c(F)c(Nc3ccc(Br)cc3Cl)c(C(=O)NOCCO)cc21 [Selumetinib] + Nc1nc2[nH]cc(CCc3ccc(C(=O)N[C@@H](CCC(=O)O)C(=O)O)cc3)c2c(=O)[nH]1 [Pemetrexed] (partner 0.2 µM)
The method in brief:
as §1

Compound in assay [3]: CC1(C)CCC(CN2CCN(c3ccc(C(=O)NS(=O)(=O)c4ccc(NCC5CCOCC5)c([N+](=O)[O-])c4)c(Oc4cnc5[nH]ccc5c4)c3)CC2)=C(c2ccc(Cl)cc2)C1 [Venetoclax] + CC(=O)Nc1cccc(-n2c(=O)n(C3CC3)c(=O)c3c(Nc4ccc(I)cc4F)n(C)c(=O)c(C)c32)c1 [Trametinib] (partner 0.02 µM)
The method in brief:
as §1

Compound in assay [4]: Cn1cnc2c(F)c(Nc3ccc(Br)cc3Cl)c(C(=O)NOCCO)cc21 [Selumetinib] + CC(C)C[C@H](NC(=O)[C@H](Cc1ccccc1)NC(=O)c1cnccn1)B(O)O [Bortezomib] (partner 0.002 µM)
In short, it runs like this: as §1

In the supplement of paper PMC10307832 one finds relative viability data, which are given here for one cell line.

Take UMC-11: the relative viability in assay [1] (first compound 0.02 µM) worked out at 1.14; in assay [1] (first compound 0.06325 µM), 0.869; in assay [1] (first compound 0.2 µM) it was 1.08; in assay [1] (first compound 0.6325 µM), 0.967; in assay [2] (first compound 0.02 µM), 0.771; in assay [2] (first compound 0.06325 µM) it was 0.788. Also, the relative viability amounted to 0.827 in assay [2] (first compound 0.2 µM); 0.903 in assay [2] (first compound 0.6325 µM); 0.674 in assay [3] (first compound 0.01 µM); 0.74 in assay [3] (first compound 0.03162 µM); 0.713 in assay [3] (first compound 0.1 µM); 0.664 in assay [3] (first compound 0.3162 µM). Also, the relative viability in assay [3] (first compound 1 µM) was 0.749; in assay [4] (first compound 0.02 µM), 0.685; in assay [4] (first compound 0.06325 µM), 0.589; in assay [4] (first compound 0.2 µM) it was 0.974; in assay [4] (first compound 0.6325 µM), 0.848.
